Entries after “also recorded” stand apart in the source; their conditions may differ.
Assays:
[1] = system: HTB-178 lung tumor cells (EGFR+, PIK3CA+, RB1−, TP53−); assay: Killing effects on HTB-178 tumor cells; assay type: cell-based, human; settings: for Potential killing effects on HTB-178 tumor cells, 1st / Potential killing effects on HTB-178 tumor cells, 2nd: Assay 1(y), at 10 uM
human protein targets = settings: PubChem database queries; cited from earlier work
NRF2 = assay: in vitro; assay type: cell-based, human; settings: for NRF2-dependency for H2O2-resistance, at 10 uM - with H2O2, 2nd experiment: experiment 2 (2nd); for NRF2-dependency for H2O2-resistance, at 10 uM - with H2O2, 2nd experiment / NRF2-dependency for H2O2-resistance, at 10 uM (experiment 3) - with & without H2O2 / NRF2-dependency for H2O2-resistance (experiment 3) / NRF2-dependency for H2O2-resistance, 2nd experiment / Assay 17: NRF2-dependency for H2O2-resistance / NRF2-dependency for H2O2-resistance, at 10 uM - with H2O2, 1st experiment / NRF2-dependency for H2O2-resistance, 1st experiment: 10 uM; for NRF2-dependency for H2O2-resistance (experiment 3): with & without H2O2, NRF2 knockdown in WI-38 cells; for NRF2-dependency for H2O2-resistance (experiment 3) / NRF2-dependency for H2O2-resistance, 2nd experiment / NRF2-dependency for H2O2-resistance, 1st experiment: YES = resistance reduced by at least 50%, partial = 25% to 50%; for NRF2-dependency for H2O2-resistance, 2nd experiment / NRF2-dependency for H2O2-resistance, 1st experiment: with H2O2, NRF2 knockdown in WI-38 cells; for Assay 17: NRF2-dependency for H2O2-resistance: YES/NO; for NRF2-dependency of H2O2-resistance (NRF2 siRNA knockdown): at least 2 of 3 independent experiments; for NRF2-dependency for H2O2-resistance, at 10 uM - with H2O2, 1st experiment: experiment 1 (1st)
LC3A/B puncta = assay: Autophagy induction analysis (LC3A/B puncta immuno-staining); assay type: cell-based, human
Procedure: Immuno-staining of LC3A/B was performed, following a standard protocol. Briefly, WI-38 cells were treated with small molecules for 24 hrs, and then processed and incubated with primary antibody (Cell Signaling, rabbit anti-LC3A/B, 1:100) overnight at 4° C. Next day, samples were processed and incubated with fluorophore-conjugated secondary antibody and further incubated with DAPI dye. Images were collected on the INCell Analyzer 2000 (Experiment 1: 10× objective; Experiment 2: 20× objective) and analyzed with the Developer Toolbox. For Experiment 2, lysosomal-associated membrane protein 2 (LAMP2) was also counter-stained to identify the LC3A/B puncta that colocalize with lysosome and the data were analyzed by the MetaXpress software (Molecular Devices, version 5.1). The intensity of total (Exp. 1) or LAMP2-colocalized LC3A/B puncta (Exp. 2) was normalized the total numbers nuclei in the fields.
These assays were performed, following the same procedures to analyze DNA-damage markers. WI-38 cells were incubated with small molecules for 24 hrs, and then processed and incubated with primary antibody (rabbit anti-LC3A/B, 1:100) overnight at 4 C. The next day, samples were processed and incubated with fluorophore-conjugated secondary antibody and further incubated with DAPI dye. Images were collected on an INCell Analyzer 2000 and analyzed with the Developer software. Total LC3A/B puncta intensity was normalized the total numbers of DAPI-positive nuclei.

C. elegans = assay type: in vivo, Caenorhabditis elegans; settings: in vivo
Procedure: The worms were treated with the small molecules in liquid, with H2O2 (500 μM final concentration) added on day 4 of adulthood, and scored for viability everyday
FUdR was used to block progeny production. The molecules were analyzed in 96-well plates, with 4 wells for each small molecule. Multiple control wells with DMSO (0.2% final concentration) were included. […] Day 1 adults were transferred onto mini-plates, seeded with OP50 bacteria (UV-irradiated, kanamycin-treated) and supplemented with small molecules (˜60 μM final concentration, 0.2% DMSO). Worms were scored every other day. Cumulative survival was analyzed using the STATA software (log-rank test). […] The worms were treated with the small molecules in liquid, with H2O2 (500 μM final concentration) added on day 4 of adulthood, and scored for viability every day.

| SMILES | Potential killing effects on HTB-178 tumor cells, 1st [1] | Potential targets: human protein targets (confirmed) (human protein targets) | J = NRF2-dependency for H2O2-resistance (NRF2; score) | J = NRF2-dependency for H2O2-resistance (NRF2; summary score) | H = Potential Autophagy Induction (LC3A/B puncta; score) | H = Potential Autophagy Induction (LC3A/B puncta; summary score) | H2O2-resistance assay, 1st experiment (C. elegans) | L = H2O2-resistance in worms (C. elegans) | N = H2O2-resistance in woms (C. elegans) | NRF2-dependency for H2O2-resistance, at 10 uM - with H2O2, 2nd experiment (NRF2) | NRF2-dependency for H2O2-resistance, 2nd experiment (NRF2) | Assay 17: NRF2-dependency for H2O2-resistance (NRF2) | NRF2-dependency of H2O2-resistance (NRF2 siRNA knockdown) (NRF2) | further results |
| --- | --- | --- | --- | --- | --- | --- | --- | --- | --- | --- | --- | --- | --- | --- |
| CC1C(=O)C(C)C(c2cc(Cl)ccc2O)NC1c1cc(Cl)ccc1O (centres unmarked) [O6] | YES; | ADAM10, ADAM17, ATXN2, GLP1R, IDH1, IL1B, KCNE1, KCNQ1, NTSR1 | 0 | 0 | 0 | 0 | YES; | 0 | 0 | – | – | – | – | – |
| Oc1ncnc2sc3c(c12)CCC3 [O14] | – | TRHR | 0 | 0 | 0 | 0 | – | 0 | 0 | – | – | – | – | – |
| Cc1cc(C)c(C(=O)/C=C/c2ccccc2F)c(O)n1 [O18] | – | JAK2 | 1 | 1 | 0 | 0 | – | 0 | 0 | 2nd, partial. | partial. | YES | significantly attenuate | NRF2-dependency for H2O2-resistance, at 10 uM (experiment 3) - with & without H2O2 (NRF2): YES; NRF2-dependency for H2O2-resistance (experiment 3) (NRF2): YES |
| Nc1ccccc1S(=O)(=O)Nc1cccc2cccnc12 [Gr-3C] | – | GAPDH, NFKBIA, RELA | 0 | 0 | 0 | 0 | – | 0 | 0 | – | – | – | – | – |
| CCCC(=O)Nc1ccc(-c2cn3cccc(C)c3n2)cc1 [O12] | YES; | – | 0 | 0 | 0 | 0 | YES; | 0 | 0 | – | – | – | – | – |
| CCCN1C/C(=C\c2ccc(F)cc2)C(=O)/C(=C/c2ccc(F)cc2)C1 [O15] | YES; | – | 1 | 1 | 0 | 0 | YES; | 1 | 1 | 2nd, YES. | YES. | YES | significantly attenuate | Potential killing effects on HTB-178 tumor cells, 2nd [1]: YES.; NRF2-dependency for H2O2-resistance, at 10 uM - with H2O2, 1st experiment (NRF2): 1st, YES;; NRF2-dependency for H2O2-resistance, at 10 uM (experiment 3) - with & without H2O2 (NRF2): YES; NRF2-dependency for H2O2-resistance (experiment 3) (NRF2): YES; NRF2-dependency for H2O2-resistance, 1st experiment (NRF2): YES;; Reduction of H2O2-resistance capacity upon NRF2 knockdown, on average (NRF2; 3 of 3 experiments): ~90%; H2O2-resistance assay, 2nd experiment (C. elegans): YES.; Protection of C. elegans from hydrogen peroxide (C. elegans): protected worms from hydrogen peroxide; also recorded: protected C. elegans from hydrogen peroxide; also recorded: could protect C. elegans from hydrogen peroxide |
| CCc1ccc(Oc2nc3ccccn3c(=O)c2/C=C(\C#N)C(=O)NC2CCCCC2)cc1 [Gr-5A] | YES; | – | 0 | 0 | 0 | 0 | YES; | 0 | 0 | – | – | – | – | – |
| CC(C)(C)c1ccc(OCC(=O)Nc2ccc3c4c(cccc24)C(=O)NC3=O)cc1 [O22] | – | APOBEC3F, CFTR, NCOA3, OPRD1, OPRM1, PPARG, S1PR4, TDP1 | 1 | 1 | 0 | 0 | – | 0 | 0 | 2nd, partial. | partial. | YES | significantly attenuate | NRF2-dependency for H2O2-resistance, at 10 uM - with H2O2, 1st experiment (NRF2): 1st, partial;; NRF2-dependency for H2O2-resistance, 1st experiment (NRF2): partial; |
| O=[N+]([O-])c1ccccc1S(=O)(=O)Nc1cccc2cccnc12 [Gr-3A] | – | ADRBK1, APLNR, BARD1, BAZ2B, BRCA1, CCR6, DRD3, GMNN, IL1B,; also recorded: MDM2, MDM4, NFE2L2, NFKBIA, NOD1, NOD2, OPRK1, RBBP8, RELA,; also recorded: SIX1, SMAD3, TDP1 | 0 | 0 | 0 | 0 | – | 0 | 0 | – | – | – | – | – |
| [O-][n+]1onc2c3nsnc3c(Br)cc21 [O17] | YES; | – | 0 | 0 | 0 | 0 | YES; | 1 | 1 | – | – | – | – | Potential killing effects on HTB-178 tumor cells, 2nd [1]: YES.; H2O2-resistance assay, 2nd experiment (C. elegans): YES.; Protection of C. elegans from hydrogen peroxide (C. elegans): could protect C. elegans from hydrogen peroxide |
| O=C(NCc1cccnc1)/C(=C\c1ccc(Br)cc1)S(=O)(=O)c1ccccc1 [Gr-7B] | YES; | – | 1 | 1 | 0 | 0 | YES; | 0 | 0 | 2nd, partial. | partial. | YES | significantly attenuate | Assay 21: Potential killing effects on HTB-178 tumor cells ([1]; 10 uM, YES/NO): YES; Toxicity / viability of HTB-178 lung tumor cells ([1]; 10 μM, preliminary data): exerted more pronounced toxicity; also recorded: significantly reduce the viability; NRF2-dependency for H2O2-resistance, at 10 uM - with H2O2, 1st experiment (NRF2): 1st, partial;; NRF2-dependency for H2O2-resistance, 1st experiment (NRF2): partial; |

Source: patent publication US11413278B2, “Compounds and methods for promoting stress resistance” (priority 2015, dated 2022)
